The test system of series [1] is Pseudomonas aeruginosa. As to the kind of experiment: Antibacterial activity against Pseudomonas aeruginosa MTCC 424 at 250 ug/ml after 24 hrs by Kirby-Bauer method. It counts as functional. To be noted: MTCC 424, 24 h, read-out: IZ.
Series [2] concerns Pseudomonas aeruginosa. As to the kind of experiment: Antibacterial activity against Pseudomonas aeruginosa MTCC 424 after 24 hrs by broth dilution method. It counts as functional. To be noted: MTCC 424, 24 h. A general note: Broth dilution looks for growth in wells or tubes with falling amounts of substance.
The test system of series [3] is Staphylococcus aureus. As to the kind of experiment: Antibacterial activity against Staphylococcus aureus MTCC 96 at 250 ug/ml after 24 hrs by Kirby-Bauer method. It counts as functional. The conditions noted are these: MTCC 96, 24 h, read-out: IZ.
Series [4] deals with Streptococcus pyogenes. In words: Antibacterial activity against Streptococcus pyogenes MTCC 442 after 24 hrs by broth dilution method. It counts as functional. The conditions noted are these: MTCC 442, 24 h.
For series [5], the system named is Escherichia coli. In words: Antibacterial activity against Escherichia coli MTCC 443 at 250 ug/ml after 24 hrs by Kirby-Bauer method. To be noted: MTCC 443, 24 h, read-out: IZ. It counts as functional.
Series [6] has as its system Escherichia coli. In words: Antibacterial activity against Escherichia coli MTCC 443 after 24 hrs by broth dilution method. The conditions noted are these: MTCC 443, 24 h. It counts as functional.
Series [7] concerns Staphylococcus aureus. As to the kind of experiment: Antibacterial activity against Staphylococcus aureus MTCC 96 after 24 hrs by broth dilution method. It counts as functional. To be noted: MTCC 96, 24 h.
The subject of series [8] is Streptococcus pyogenes. In words: Antibacterial activity against Streptococcus pyogenes MTCC 442 at 250 ug/ml after 24 hrs by Kirby-Bauer method. It counts as functional. The conditions noted are these: MTCC 442, 24 h, read-out: IZ.
The subject of series [9] is Candida albicans. As to the kind of experiment: Antifungal activity against Candida albicans MTCC 227 at 250 ug/ml after 74 hrs by Kirby-Bauer method. It counts as functional. To be noted: MTCC 227, 74 h, read-out: IZ.
Series [10] has as its system Aspergillus clavatus. As to the kind of experiment: Antifungal activity against Aspergillus clavatus MTCC 1323 at 250 ug/ml after 74 hrs by Kirby-Bauer method. It counts as functional. The conditions noted are these: MTCC 1323, 74 h, read-out: IZ.
Series [11] concerns Candida albicans. In words: Antifungal activity against Candida albicans MTCC 227. It counts as functional.
For series [12], the system named is Aspergillus clavatus. As to the kind of experiment: Antifungal activity against Aspergillus clavatus MTCC 1323. It counts as functional.
Series [13] deals with Aspergillus niger. As to the kind of experiment: Antifungal activity against Aspergillus niger MTCC 282. It counts as functional.
Series [14] deals with Aspergillus niger. As to the kind of experiment: Antifungal activity against Aspergillus niger MTCC 282 at 250 ug/ml after 74 hrs by Kirby-Bauer method. It counts as functional. To be noted: MTCC 282, 74 h, read-out: IZ.
For series [15], the system named is Human immunodeficiency virus 2. In words: Antiviral activity against HIV2 ROD infected in MT4 cells assessed as inhibition of virus-induced cytopathogenicity by MTT assay. It counts as functional, organism-based. To be noted: Human immunodeficiency virus 2, ISOLATE ROD.
A short description of series [16]: Cytotoxicity against human MT4 cells by MTT assay. It counts as cell-based. For orientation: Tetrazolium dyes change colour on reduction, which living cells bring about.
The nature of series [17]: Selectivity index, ratio of CC50 for human MT4 cells to IC50 for HIV2 ROD. It counts as functional.
For series [18], the system named is Human immunodeficiency virus 1. In words: Antiviral activity against HIV1 3B infected in MT4 cells assessed as inhibition of virus-induced cytopathogenicity by MTT assay. It counts as functional, organism-based. The conditions noted are these: Human immunodeficiency virus 1, 3B.
Series [19] can be described thus: Selectivity index, ratio of CC50 for human MT4 cells to IC50 for HIV1 3B. It counts as functional.
Series [20] in a line: Cytotoxicity against human HEL cells assessed as alteration in cell morphology. It counts as cell-based.
Series [21] deals with Cytomegalovirus. As to the kind of experiment: Antiviral activity against Cytomegalovirus AD-169 infected in HEL cells assessed as reduction in plaque formation. It counts as functional, organism-based. The conditions noted are these: Human betaherpesvirus 5, AD-169, HEL.
Series [22] can be described thus: Cytotoxicity against human HEL cells. It counts as cell-based.
Series [23] relates to Human alphaherpesvirus 3. As to the kind of experiment: Antiviral activity against Varicella-zoster virus Oka expressing thymidine kinase infected in HEL cells assessed as reduction in plaque formation. To be noted: Human alphaherpesvirus 3, strain Oka vaccine. It counts as functional, organism-based.
For series [24], the system named is Cytomegalovirus. As to the kind of experiment: Antiviral activity against Cytomegalovirus Davis in HEL cells assessed as reduction in plaque formation. It counts as functional, organism-based. The conditions noted are these: Human betaherpesvirus 5, Davis.
Series [25] has as its system Human alphaherpesvirus 3. As to the kind of experiment: Antiviral activity against thymidine kinase-deficient Varicella-zoster virus infected in HEL cells assessed as reduction in plaque formation. It counts as functional, organism-based. The conditions noted are these: Human alphaherpesvirus 3, HEL.

SMILES strings stand for the structures. Values after ≈ are worked out from the molar mass of the structure shown.

A word on the MIC: it is the lowest concentration that inhibits growth of the organism. High values mean a need for much substance, low ones inhibition by little substance. Regarding `O=C(N[C@H](CO)[C@H](O)c1ccc([N+](=O)[O-])cc1)C(Cl)Cl` [CHLORAMPHENICOL], the zone of inhibition at 250 µg/mL in the series on Pseudomonas aeruginosa [1] came to 21 mm; with Staphylococcus aureus [3], 21 mm; with Escherichia coli [5], 23 mm; in the series with Streptococcus pyogenes [8] it was 20 mm. Moreover, the MIC against Pseudomonas aeruginosa [2], against Streptococcus pyogenes [4], in the series on Escherichia coli [6] and in the series on Staphylococcus aureus [7] was 50 µg/mL (≈ 155 µM) throughout.

On to `CC1(C)S[C@@H]2[C@H](NC(=O)[C@H](N)c3ccccc3)C(=O)N2[C@H]1C(=O)O` [AMPICILLIN], for which the zone of inhibition at 250 µg/mL with Pseudomonas aeruginosa [1] was 20 mm; in the series with Staphylococcus aureus [3] it was 18 mm; in the series with Escherichia coli [5] it was 20 mm; in the series on Streptococcus pyogenes [8], 19 mm. For the same compound, the minimal inhibitory concentration (MIC) against Pseudomonas aeruginosa [2] came to 100 µg/mL (≈ 286 µM); in the series on Streptococcus pyogenes [4], 100 µg/mL (≈ 286 µM); in the series on Escherichia coli [6], 100 µg/mL (≈ 286 µM); in the series on Staphylococcus aureus [7], 250 µg/mL (≈ 715 µM).

For the compound `CN1CCN(Cc2c([O-])on[n+]2-c2ccc(Cc3ccc(-[n+]4noc([O-])c4CN4CCN(C)CC4)cc3)cc2)CC1`, the zone of inhibition at 250 µg/mL with Candida albicans [9] is 19 mm; with Aspergillus clavatus [10], 23 mm; in the series with Pseudomonas aeruginosa [1], 19 mm; in the series on Staphylococcus aureus [3] it was 16 mm; with Escherichia coli [5] it was 19 mm; in the series on Streptococcus pyogenes [8] it was 22 mm. For the same compound, in the series with Aspergillus niger [14], the zone of inhibition at 250 µg/mL was 20 mm. Besides, the MIC came out at 500 µg/mL (≈ 892 µM) in the series on Candida albicans [11]; 250 µg/mL (≈ 446 µM) in the series on Pseudomonas aeruginosa [2]; 62.5 µg/mL (≈ 111 µM) against Streptococcus pyogenes [4]; 500 µg/mL (≈ 892 µM) against Aspergillus clavatus [12]; 250 µg/mL (≈ 446 µM) against Escherichia coli [6]; 500 µg/mL (≈ 892 µM) against Staphylococcus aureus [7]. The MIC against Aspergillus niger [13] was 1000 µg/mL (≈ 1780 µM).

Regarding `Cc1ccc(-[n+]2noc([O-])c2CN2CCN(CCOCCO)CC2)cc1`, the zone of inhibition at 250 µg/mL with Pseudomonas aeruginosa [1] came to 21 mm; with Staphylococcus aureus [3], 19 mm; in the series with Escherichia coli [5], 16 mm; with Streptococcus pyogenes [8], 16 mm. Moreover, the MIC against Pseudomonas aeruginosa [2] is 250 µg/mL (≈ 690 µM); in the series on Streptococcus pyogenes [4], 500 µg/mL (≈ 1380 µM); in the series on Escherichia coli [6] it was 500 µg/mL (≈ 1380 µM); against Staphylococcus aureus [7], 200 µg/mL (≈ 552 µM).

The IC50 is the midpoint of a concentration-inhibition curve. The term CC50 denotes the concentration at which the toxic effect on the cells reaches its halfway point. A lower CC50 goes with greater toxicity to the cells. As to `Cc1ccnc2c1NC(=O)c1cccnc1N2C1CC1` [NEVIRAPINE], the IC50 was more than 4 µg/mL in [15] and 0.05 µg/mL (≈ 0.188 µM) in series [18]. In [16], this compound returned a CC50 of more than 4 µg/mL. Further, the “Ratio CC50/IC50” value in series [17] is less than 1; in [19], more than 80.

As for `COC1=CC(=O)C[C@@H](C)[C@]12Oc1c(Cl)c(OC)cc(OC)c1C2=O` [GRISEOFULVIN], the results for the zone of inhibition at 250 µg/mL in the series on Candida albicans [9], with Aspergillus clavatus [10] and in the series on Aspergillus niger [14] were 24 mm, 24 mm and 28 mm, respectively. Also, the MIC against Candida albicans [11], with Aspergillus clavatus [12] and in the series with Aspergillus niger [13] was 100 µg/mL (≈ 283 µM) throughout.

Take `Nc1ccn([C@H]2CC[C@@H](CO)O2)c(=O)n1` [ZALCITABINE]: the figures for the IC50 in [15] and in [18] were 0.19 µg/mL (≈ 0.9 µM) and 0.16 µg/mL (≈ 0.758 µM), respectively. Further, in series [16], the CC50 was more than 20 µg/mL. For the same compound, the “Ratio CC50/IC50” value in [17] is given as more than 108; in series [19], more than 127.

A word on the EC50: it is the concentration giving half of the maximal effect. Turning to `[O-]c1c[n+](-c2ccc(Cc3ccc(-[n+]4cc([O-])on4)cc3)cc2)no1`, in series [20], the MCC was not below 20 µg/mL. For the same compound, the EC50 with Cytomegalovirus [21] is more than 4 µg/mL; in the series on Human alphaherpesvirus 3 [23] it was more than 4 µg/mL; in the series on Cytomegalovirus [24] it was more than 20 µg/mL; in the series on Human alphaherpesvirus 3 [25], more than 4 µg/mL. Also, the midpoint of cytotoxicity in [22], the CC50, lay at 33.3 µg/mL (≈ 99 µM).

The values above are taken from ChEMBL document CHEMBL3044741, “Synthesis of novel biologically active methylene derivatives of sydnones” (Med Chem Res, 2013).
